Measured values published in US6166085A, “Method of producing analgesia” (priority 1996, dated 2000).
Entries after “also recorded” stand apart in the source; their conditions may differ.

Columns and labels:
allodynia = assay: Tactile allodynia (paw withdrawal threshold, % MPE) in L5/L6 spinal nerve ligated rats, Example 3; format: in vivo, Harlan Sprague-Dawley rats
Procedure: Male Harlan Sprague-Dawley rats were used (100-200 g). Rats were housed 2-3 to a cage with corn cob bedding and Purina rat chow and water ad libitum, in a standard facility with a 12 h/12 h day/night cycle. After surgical procedures involving chronic indwelling catheter insertion, animals were housed singly to prevent catheter damage.
Rats were allowed to recover 5-7 days before further testing or surgeries.
The catheters were 9 cm in intrathecal length and terminated near the lumbar enlargement. The rostral 3 cm of catheter was tunneled under the skin to externalize between the ears. Rats with neurologic deficits were discarded.
For intravascular access, external jugular catheters were fashioned from PE-50 tubing and inserted into an external jugular vein under halothane/oxygen anesthesia. Arterial catheters were also fashioned from PE-50 with a small bouton 1 cm from the intravascular end for suture securing; they were inserted into a carotid artery, taking care to spare the surrounding nerves. All catheters were flushed with heparinized saline (10 U/ml) and tunneled subcutaneously to emerge at the posterior base of the neck, and capped when not in use.
Monoethylglycinexylidide (MEGX) and 3-hydroxy monoethyl-glycinexylidide (3-OH MEGX) were dissolved in physiologic saline; 3-hydroxylidocaine (3-OH L) was dissolved in DMSO for intravenous administration.
Intravenous drugs were delivered to awake, unrestrained rats by slow infusion using a syringe pump (Harvard apparatus 22). Intrathecal drugs were delivered to awake, briefly restrained rats in a volume of 10 μl, followed by 10 μl of vehicle flush, using a calibrated tubing extension with a 30-gauge adapter fitting the implanted intrathecal catheter, attached to a geared Hamilton 100 μl glass syringe. IT drug delivery was monitored by observing the advancement of a small air bubble down the tubing.
Rats were placed in a plastic cage with an open wire mesh bottom and allowed to accommodate for approximately fifteen minutes. […] In brief, von Frey hairs were sequentially applied using an up-and-down paradigm to the left mid-plantar hindpaw with sufficient force to cause slight filament buckling. Positive responses were noted if the paw was sharply withdrawn. […] Otherwise, PWT were calculated by noting the stimulus level at which the first change in behavior occurred, collecting four additional responses to the continued up-and-down oscillation of stimulus presentation around the response threshold, and interpolating the 50% response threshold. For some comparisons, raw thresholds were converted to percent of maximum possible effect (% MPE), designating pre-treatment PWT (baselines) as 0% effect, and assigning a cutoff value of 100% effect to thresholds ≥15 g: therefore, % MPE values near 100 indicate normal mechanical thresholds (i.e., at or near 15 g), whereas values near 0 indicate allodynia. The following equation was used to compute % MPE:
% MPE=new threshold(g)-baseline threshold(g)×100/ 15 grams--baseline
Plasma drug levels and PWT were correlated using linear regression. Serially measured PWT and % MPE were compared using repeated measures ANOVA with post-hoc testing.

[1] = tested on: sciatic nerve compound action potential; assay: Rat sciatic nerve compound action potential in vivo, direct application; parameters: species or system Harlan Sprague Dawley rats; conditions: for blockade of sciatic nerve compound action potential (in words): direct application, metabolites 5 mg, 10 min
Procedure: Male Harlan Sprague Dawley rats (300-350 g) were anesthetized with pentobarbital/diazepam. The sciatic nerves were sequentially and bilaterally exposed by sharp/blunt dissection from the popliteal region proximally. Electrodes were placed at the sciatic notch (stimulating), and the interossei (recording); a grounding electrode was applied remote from the field. Baseline compound action potential (CAP) (A alpha/beta) wave heights (mV) in response to stimulation 1× per minute were recorded for ten minutes to obtain a stable reference. One drug/vehicle solution was applied per nerve, at mid-nerve (mid-thigh) level, in a volume of 250 μl, and compound action potential wave height then was recorded 1× per minute for ten minutes after application.

[2] = Observation of motor dysfunction and overt behavior / side effects; format: in vivo, Sprague-Dawley rats; conditions: for overt changes in behavior / adverse side effects, formalin test: formalin test studies; for overt changes in behavior / adverse side effects, formalin test / adverse side effects, neuropathy model: intrathecal; for adverse side effects, neuropathy model: neuropathic rats, 3-hydroxy MEGX 0.3 and 0.6 μmol, lidocaine 0.6 μmol
Text: Animals were also observed for the appearance of general motor dysfunction,as evidenced by inability to ambulate symmetrically and for any other overt signs of unusual activity.

[3] = tested on: formalin-induced nociceptive responses; assay: Rat formalin test (paw flinching), intrathecal drug; format: in vivo, Sprague-Dawley rats
Text: One such model, for response to an acute stimulus, is the rat formalin test. This test reflects several levels of processing of nociceptive information in the spinal cord (see Wheeler-Aceto, et al. 1990; Wheeler-Aceto, et al., 1991). […] This second phase is thought to represent a state of facilitated processing evoked by the afferent input present during phase 1 and to involve release of at least two substances, glutamate and a, tachykinin, based on pharmacological evidence (Yamamoto and Yaksh, 1991, 1992).
In the rat formalin test, a standard dose of formalin is injected into the rat paw, and flexions of the paw are quantitated over the following 90 minute period (Example 1). A biphasic response pattern is typically observed, with numerous responses observed during the period 5 min. after injection (Phase 1) and a second phase (Phase 2) which occurs during the period about 10-60 minutes following injection. The mean number of flinches per minute is recorded as a function of time.
Quantitation of responses during each phase is made by calculation of area under the curve of flinches/min., as shown in FIGS. 2B-2C.
FIGS. 2, 3 and 5 show results of experiments in which varying doses of 3-hydroxy MEGX designated 3-hydroxy MEGX, were tested for effects on the formalin response in rats. A 5% formalin solution was injected subcutaneously into the hindpaw of Sprague-Dawley rats. Ten minutes prior to formalin injection, 3-hydroxy MEGX was administered by bolus injection through an indwelling spinal (intrathecal) catheter terminating at the lumbar enlargement. For the results shown in FIGS. 2A-2C, dosing solutions were acidified to pH 6.58 with HCl. Injection volume was 20 μl.
In the standard rat formalin test, as described above, the test substance is administered prior to formalin injection. […]
Rats (male Sprague-Dawley, 275-300 g, Harlan Industries, Indianapolis, Ind.) were implanted with lumbar intrathecal catheters under halothane anesthesia (Yaksh and Rudy, 1976). Catheters (Polyethlyene PE-10) extended from the cisterna to the rostral edge of the lumbar enlargement. Three to five days after implant, animals without motor dysfunction were tested. Drugs tested in this assay were dissolved in sterile saline (0.9% NaCl) and injected in a volume of 10 μl followed by 10 μl sterile saline to clear the catheter.
Animals were examined for the effects of drugs given in the formalin test, in which 50 μl of 5% formalin was injected on the plantar surface of the paw of a lightly anesthetized (halothane, 3%) animal. The number of spontaneous flinchings/shakings of the injected paw were counted at intervals after the injection of the formalin.
The area under the curve of flinches/min was calculated for phase 1 (time=0-10 min) and phase 2 (10-60 min). […]

[4] = acute Phase 1, intrathecal, 10 min before 5% formalin, pH 6.58
[5] = lowest dose, 16.5 μg intrathecal, pH 6.58
[6] = persistent Phase 2, intrathecal, 10 min before 5% formalin, pH 6.58

SMILES: CCNCC(=O)Nc1c(C)ccc(O)c1C [3-hydroxy MEGX, 2-(ethylamino)-N-(3-hydroxy-2,6-dimethylphenyl) acetamide]
- suppression of allodynia after IT administration (summary) (allodynia; IT): suppressed allodynia after IT administration
- MPE, IT 67 μg (allodynia; IT, dose printed 67 μ, P<0.0001): 63±17%
- effect on allodynia, IV (in words) (allodynia; IV infusion, 20 mg/kg): did not show a significant effect in suppressing allodynia
- activity as metabolite with regard to allodynia suppression (allodynia; rat, in vivo): active metabolite with regard to allodynia suppression
- local anesthetic (sodium channel blocking) activity ([1]; FIG. 12 legend): appears to lack local anesthetic (sodium channel blocking) activity altogether
- blockade of sciatic nerve compound action potential (in words) ([1]; lidocaine 2.5 mg): no blockade could be obtained
- activity in ranking of CAP blockade (Lido>MEGS>3-OH L>>3-OH MEGX=0) ([1]; metabolites at 5 mg, lidocaine 2.5 mg): 0
- motor block / motor effects (summary) ([2]; IT, 3-hydroxy MEGX at effective anti-allodynia dose, MEGX in excess): did not cause motor block at an effective anti-allodynia dose; also recorded: no evidence of motor effects
- overt changes in behavior / adverse side effects, formalin test [2]: produced no overt changes in behavior
- adverse side effects, neuropathy model [2]: no observable adverse side effects
- Phase 1 ED50 (approximately 50% inhibition) [3, 4]: 9.3 µg
- Phase 1 ED50 (approximately 50% inhibition), molar [3, 4]: 42 nmol
- duration of inhibition, higher doses ([3]; higher doses, intrathecal, pH 6.58, "up to 90 minutes or longer"): ≥ 90 min
- blockade of persistent (Phase 2) nociceptive responses ([3]; intrathecal after formalin injection, pH 6.58): blocks persistent (Phase 2) nociceptive responses
- blockade of formalin-induced acute and persistent nociceptive responses ([3]; intrathecal, dosing solutions pH 9.2, n=4 animals/group): dose-dependent blockade
- duration of inhibition [3, 5]: up to one hour
- inhibition of Phase 1 and Phase 2 responses [3, 5]: showed inhibition of both the Phase 1 and Phase 2 responses
- Phase 2 ED50 (approximately 50% inhibition) [3, 6]: 29.9 µg
- Phase 2 ED50 (approximately 50% inhibition), molar [3, 6]: 135 nmol

SMILES: CCN(CC)CC(=O)Nc1c(C)cccc1C [lidocaine]
- effect on allodynia / PWT, IT 500 μg (in words) (allodynia; IT, 500 μg, after recovery of motor function): no effect on allodynia was seen
- blockade of sciatic nerve compound action potential (in words) ([1]; lidocaine 2.5 mg): rapid and complete blockade of the sciatic nerve action potential; also recorded: abolished the CAP with ten minutes
- duration of motor dysfunction (hindquarter flaccidity / weakness) ([2]; IT, 500 μg): approximately 10 minutes
- motor dysfunction, IT (in words) ([2]; IT, Example 3, lidocaine and MEGX 500 μg, 3-OH L 58 μg (highest dose soluble in vehicle)): acute onset of hindquarter flaccidity
- overt changes in behavior / adverse side effects, formalin test [2]: transient hindlimb paresis
- adverse side effects, neuropathy model [2]: immediate and transient weakness
- effect on formalin-induced nociceptive responses ([3]; intrathecal, pH 6.58, injection volume 20 μl): no effect on the formalin-induced nociceptive responses
